Data: the CheMixHub viscosity set
± gives the uncertainty stated by the source.

Assay: xn = mol fraction of the nth substance listed

OCC(O)CO + CC(=O)N(C)C
viscosity [mPa·s], 101 kPa
Conditions	x1 = 0.124	x1 = 0.241	x1 = 0.353	x1 = 0.459	x1 = 0.56	x1 = 0.656	x1 = 0.748	x1 = 0.836	x1 = 0.92
303.15 K	2.21 ± 0.04	3.92 ± 0.07	7.04 ± 0.12	12.8 ± 0.2	29.9 ± 0.5	61.6 ± 1	120.7 ± 3	204.4 ± 7	335.7 ± 15
318.15 K	1.78 ± 0.03	3.01 ± 0.05	4.79 ± 0.08	7.81 ± 0.13	17.6 ± 0.3	26.3 ± 0.4	43.2 ± 0.7	75.9 ± 1.3	117.4 ± 2.8

CCCCCCCCCCCCCCCCCCCl + CCCCC
298 K, 101.3 kPa
Conditions	viscosity [mPa·s]
x2 = 0.1054	6.009 ± 0.16
x2 = 0.2014	4.945 ± 0.13
x2 = 0.3067	3.902 ± 0.1
x2 = 0.4166	2.952 ± 0.077
x2 = 0.4993	2.325 ± 0.061
x2 = 0.6122	1.613 ± 0.042
x2 = 0.7054	1.157 ± 0.03
x2 = 0.8048	0.7477 ± 0.02
x2 = 0.9029	0.431 ± 0.011

CCOc1ccccc1 + c1ccccc1
viscosity [mPa·s], 101.33 kPa
Conditions	298.15 K	323.15 K
x1 = 0.2	0.68 ± 0.0068	0.49 ± 0.0049
x1 = 0.5	0.823 ± 0.0082	0.576 ± 0.0058

COC(=O)CC(C)=O + CCCCO
viscosity [mPa·s], 101.33 kPa
Conditions	x1 = 0.1022	x1 = 0.2039	x1 = 0.306	x1 = 0.4081	x1 = 0.511	x1 = 0.6074	x1 = 0.7044	x1 = 0.8051	x1 = 0.9038
298.15 K	1.886 ± 0.045	1.628 ± 0.039	1.465 ± 0.036	1.378 ± 0.034	1.328 ± 0.033	1.311 ± 0.032	1.321 ± 0.033	1.368 ± 0.034	1.436 ± 0.035
303.15 K	1.669 ± 0.04	1.447 ± 0.035	1.308 ± 0.032	1.235 ± 0.031	1.197 ± 0.03	1.183 ± 0.029	1.197 ± 0.03	1.211 ± 0.03	1.302 ± 0.032
308.15 K	1.487 ± 0.036	1.301 ± 0.032	1.195 ± 0.03	1.118 ± 0.028	1.09 ± 0.027	1.08 ± 0.027	1.093 ± 0.027	1.131 ± 0.028	1.19 ± 0.03

CCCCCCCCCCCC(=O)OC + CC(C)C1CCCCC1
viscosity [mPa·s], 100 kPa
Conditions	x2 = 0.1008	x2 = 0.2004	x2 = 0.3006	x2 = 0.4002	x2 = 0.5004	x2 = 0.6003	x2 = 0.7001	x2 = 0.8	x2 = 0.9001
293.15 K	2.862 ± 0.061	2.608 ± 0.055	2.365 ± 0.05	2.139 ± 0.045	1.93 ± 0.041	1.728 ± 0.037	1.546 ± 0.033	1.378 ± 0.029	1.229 ± 0.026
298.15 K	2.558 ± 0.054	2.342 ± 0.05	2.133 ± 0.045	1.937 ± 0.041	1.756 ± 0.037	1.579 ± 0.034	1.419 ± 0.03	1.271 ± 0.027	1.137 ± 0.024
303.15 K	2.303 ± 0.049	2.117 ± 0.045	1.936 ± 0.041	1.765 ± 0.038	1.606 ± 0.034	1.45 ± 0.031	1.308 ± 0.028	1.176 ± 0.025	1.056 ± 0.022
308.15 K	2.088 ± 0.044	1.926 ± 0.041	1.768 ± 0.038	1.617 ± 0.034	1.476 ± 0.031	1.338 ± 0.028	1.211 ± 0.026	1.093 ± 0.023	0.984 ± 0.021
313.15 K	1.904 ± 0.04	1.759 ± 0.037	1.621 ± 0.034	1.488 ± 0.032	1.363 ± 0.029	1.239 ± 0.026	1.126 ± 0.024	1.018 ± 0.022	0.92 ± 0.02
318.15 K	1.743 ± 0.037	1.616 ± 0.034	1.493 ± 0.032	1.375 ± 0.029	1.262 ± 0.027	1.152 ± 0.024	1.05 ± 0.022	0.952 ± 0.02	0.863 ± 0.018
323.15 K	1.602 ± 0.034	1.49 ± 0.032	1.38 ± 0.029	1.274 ± 0.027	1.174 ± 0.025	1.074 ± 0.023	0.981 ± 0.021	0.893 ± 0.019	0.812 ± 0.017

CCOC(C)=O + CO
viscosity [mPa·s]
Conditions	293.15 K	298.15 K	303.15 K	308.15 K	313.15 K	318.15 K	323.15 K
100 kPa, x2 = 0.4071	0.4216 ± 0.0067	0.4015 ± 0.0067	0.384 ± 0.0066	0.365 ± 0.0066	0.3527 ± 0.0066	0.3431 ± 0.0065	0.3216 ± 0.0065
100 kPa, x2 = 0.6468	0.4612 ± 0.0068	0.4319 ± 0.0068	0.4112 ± 0.0067	0.3868 ± 0.0067	0.3681 ± 0.0066	0.3501 ± 0.0066	0.3336 ± 0.0065
100 kPa, x2 = 0.8048	0.499 ± 0.007	0.4697 ± 0.0069	0.4463 ± 0.0068	0.4182 ± 0.0067	0.3988 ± 0.0067	0.3758 ± 0.0066	0.3564 ± 0.0066
100 kPa, x2 = 0.9168	0.5454 ± 0.0071	0.5164 ± 0.007	0.4893 ± 0.0069	0.4559 ± 0.0068	0.4327 ± 0.0068	0.4083 ± 0.0067	0.3858 ± 0.0066
101 kPa, x1 = 0.065	0.549 ± 0.011	–	0.477 ± 0.01	–	0.424 ± 0.009	–	0.378 ± 0.008
101 kPa, x1 = 0.115	0.528 ± 0.011	–	0.462 ± 0.01	–	0.413 ± 0.009	–	0.368 ± 0.008
101 kPa, x1 = 0.306	0.475 ± 0.01	–	0.422 ± 0.009	–	0.377 ± 0.008	–	0.342 ± 0.008
101 kPa, x1 = 0.321	0.471 ± 0.01	–	0.418 ± 0.009	–	0.376 ± 0.008	–	0.341 ± 0.008
101 kPa, x1 = 0.445	–	–	–	–	0.364 ± 0.008	–	0.333 ± 0.007
101 kPa, x1 = 0.598	0.444 ± 0.009	–	0.397 ± 0.009	–	0.36 ± 0.008	–	0.328 ± 0.007
101 kPa, x1 = 0.797	–	–	–	–	0.362 ± 0.008	–	0.332 ± 0.007

CCCCCCC(=O)O + ClC(Cl)(Cl)Cl
298.15 K, 101 kPa
Conditions	viscosity [mPa·s]
x1 = 0.06	0.99 ± 0.026
x1 = 0.12	1.08 ± 0.028
x1 = 0.17	1.175 ± 0.031
x1 = 0.23	1.271 ± 0.033
x1 = 0.44	1.767 ± 0.046
x1 = 0.54	2.046 ± 0.053
x1 = 0.64	2.362 ± 0.062
x1 = 0.83	3.015 ± 0.078

COC(=O)CC(C)=O + CC(C)O
viscosity [mPa·s], 101.3 kPa
Conditions	x1 = 0.1028	x1 = 0.2052	x1 = 0.3051	x1 = 0.4085	x1 = 0.4086	x1 = 0.5084	x1 = 0.6057	x1 = 0.7079	x1 = 0.8053	x1 = 0.9038
298.15 K	1.457 ± 0.037	1.267 ± 0.032	1.195 ± 0.03	1.168 ± 0.029	–	1.16 ± 0.029	1.189 ± 0.03	1.243 ± 0.031	1.315 ± 0.032	1.419 ± 0.035
303.15 K	1.279 ± 0.032	1.124 ± 0.028	1.068 ± 0.027	1.051 ± 0.027	–	1.049 ± 0.027	1.08 ± 0.027	1.127 ± 0.028	1.197 ± 0.03	1.287 ± 0.032
308.15 K	1.023 ± 0.2	1.006 ± 0.026	0.963 ± 0.025	–	0.952 ± 0.024	0.956 ± 0.024	0.985 ± 0.025	1.032 ± 0.026	1.094 ± 0.028	1.133 ± 0.08

CCCCCCCCn1cc[n+](C)c1.[Cl-] + CO
298.15 K, 101 kPa
Conditions	viscosity [mPa·s]
x2 = 0.0565	10350 ± 4800
x2 = 0.1686	3456 ± 1300
x2 = 0.3525	534 ± 110

COC(=O)CC(C)=O + CCOC(=O)c1ccccc1
viscosity [mPa·s], 101.33 kPa
Conditions	x1 = 0.0992	x1 = 0.2023	x1 = 0.3004	x1 = 0.399	x1 = 0.4991	x1 = 0.5978	x1 = 0.6966	x1 = 0.7979	x1 = 0.8986
298.15 K	1.834 ± 0.023	1.796 ± 0.023	1.757 ± 0.022	1.729 ± 0.022	1.7 ± 0.022	1.653 ± 0.021	1.633 ± 0.021	1.598 ± 0.02	1.583 ± 0.02
303.15 K	1.661 ± 0.021	1.627 ± 0.021	1.593 ± 0.02	1.571 ± 0.02	1.543 ± 0.02	1.501 ± 0.019	1.484 ± 0.019	1.452 ± 0.019	1.44 ± 0.019
308.15 K	1.514 ± 0.019	1.484 ± 0.019	1.453 ± 0.019	1.434 ± 0.018	1.408 ± 0.018	1.373 ± 0.018	1.356 ± 0.018	1.328 ± 0.017	1.316 ± 0.017

CCCCCCCCCCCCCCCCCCCl + CCCCCCCCCC
298 K, 101.3 kPa
Conditions	viscosity [mPa·s]
x2 = 0.1067	6.162 ± 0.16
x2 = 0.2123	5.192 ± 0.14
x2 = 0.3131	4.379 ± 0.12
x2 = 0.3996	3.651 ± 0.096
x2 = 0.508	2.885 ± 0.075
x2 = 0.6105	2.385 ± 0.062
x2 = 0.7027	1.919 ± 0.05
x2 = 0.8012	1.487 ± 0.039
x2 = 0.8979	1.145 ± 0.03

FC(F)(F)C(F)(F)Cl + FC(F)Cl
Conditions	viscosity [mPa·s]
298.15 K, 101 kPa, x2 = 0.63	0.16 ± 0.02

CS(=O)(=O)[O-].C[N+](C)(CCO)CCO + CCO
Conditions	viscosity [mPa·s]
298.15 K, 101.33 kPa, x1 = 0.8954	947.5 ± 100

Clc1cccc(Cl)c1 + Nc1cccc(Cl)c1
viscosity [mPa·s], 100 kPa
Conditions	x2 = 0.1079	x2 = 0.2255	x2 = 0.3102	x2 = 0.4128	x2 = 0.5135	x2 = 0.6122	x2 = 0.7094	x2 = 0.8047	x2 = 0.8908
303.15 K	1.313 ± 0.011	1.712 ± 0.013	1.998 ± 0.015	2.341 ± 0.017	2.675 ± 0.019	2.999 ± 0.021	3.318 ± 0.024	3.627 ± 0.026	3.905 ± 0.028
308.15 K	1.225 ± 0.01	1.581 ± 0.012	1.836 ± 0.014	2.142 ± 0.016	2.439 ± 0.018	2.729 ± 0.02	3.012 ± 0.022	3.286 ± 0.024	3.532 ± 0.026
313.15 K	1.141 ± 0.01	1.455 ± 0.012	1.678 ± 0.013	1.946 ± 0.015	2.208 ± 0.017	2.462 ± 0.019	2.708 ± 0.021	2.946 ± 0.023	3.162 ± 0.024
318.15 K	1.055 ± 0.01	1.326 ± 0.011	1.519 ± 0.013	1.752 ± 0.014	1.975 ± 0.016	2.193 ± 0.018	2.405 ± 0.019	2.611 ± 0.021	2.795 ± 0.023
